Test results: US10538555B2, “Macrocyclic inhibitors of the PD-1/PD-L1 and CD80(B7-1)/PD-L1 protein/protein interactions” (BRISTOL-MYERS SQUIBB COMPANY, priority 2014, dated 2020)
*1 amine or outer side, *2 acyl side, *3 side chain or, on linkers, in order; H or OH if unused. Where a SMILES comes first, the peptide text is derived from it. Bridges are numbered along the chain shown (N, C = ends). [ ]: non-standard residue; d: D form. ξ: configuration not given here. Trp(1-CH2COOH) = N[C@@H](Cc1cn(CC(=O)O)c2ccccc12)C(=O)O; Trp(βS-Me) = C[C@@H](c1c[nH]c2ccccc12)[C@H](N)C(=O)O; Phe(3,4,5-F3) = N[C@@H](Cc1cc(F)c(F)c(F)c1)C(=O)O; Phe(3,4-Cl2) = N[C@@H](Cc1ccc(Cl)c(Cl)c1)C(=O)O; Phe(3,4-F2) = N[C@@H](Cc1ccc(F)c(F)c1)C(=O)O; NMePhe(4-F) = CN[C@@H](Cc1ccc(F)cc1)C(=O)O; ξTrp(7-aza) = NC(Cc1c[nH]c2ncccc12)C(=O)O; dPro(4S-Me) = C[C@@H]1CN[C@@H](C(=O)O)C1; d(cisHyp) = O=C(O)[C@H]1C[C@@H](O)CN1; Hyp = O=C(O)[C@@H]1C[C@@H](O)CN1; NMeF = CN[C@@H](Cc1ccccc1)C(=O)O; X1 = O=C([C@H]1COCCN1[*:1])[*:2]; dNMeF = CN[C@H](Cc1ccccc1)C(=O)O; dHyp = O=C(O)[C@H]1C[C@H](O)CN1; NMeNle = CCCC[C@H](NC)C(=O)O; Pip = O=C(O)[C@@H]1CCCCN1; dPip = O=C(O)[C@H]1CCCCN1; hSer = N[C@@H](CCO)C(=O)O; NMeA = CN[C@@H](C)C(=O)O; Orn = NCCC[C@H](N)C(=O)O; Dab = NCC[C@H](N)C(=O)O; ξC = NC(CS)C(=O)O; Sar = CNCC(=O)O

Molecular target: T1, Human PD-L1/PD-1 (Homo sapiens, UniProt Q9NZQ7)
T1 construct: TVMV protease cleavage site (C); made in house; host or cells: HEK293T cells
Assay: HTRF Human PD-L1/PD-1 binding assay (PD-1-Ig/PD-L1-His)
Conditions: PD-L1-His 10 nM, PD-1-Ig 20 nM; class symbol; read-out: HTRF Human PD-L1/PD-1 Binding Assay IC50 Range
Outline: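 HTRF competition using HEK293T-expressed human PD-1(25-167)-Ig at 20 nM and PD-L1(18-239)-His at 10 nM, compound incubated first with PD-L1 for 15 min, then with PD-1 for 15 min. Signal read as 665/620 nm ratio 30 min after adding Eu anti-Ig and APC anti-His antibodies.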

T1 sequence (Q9NZQ7 with tags, fused parts or gaps): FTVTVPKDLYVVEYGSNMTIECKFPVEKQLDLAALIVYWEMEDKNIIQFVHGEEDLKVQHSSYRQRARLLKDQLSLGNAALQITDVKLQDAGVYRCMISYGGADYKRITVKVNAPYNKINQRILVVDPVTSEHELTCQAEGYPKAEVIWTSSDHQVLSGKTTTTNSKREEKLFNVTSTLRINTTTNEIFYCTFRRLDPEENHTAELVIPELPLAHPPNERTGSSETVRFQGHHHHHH

Structure (SMILES) | IC50
CCCC[C@H]1C(=O)N2C[C@H](O)C[C@@H]2C(=O)N[C@@H](CC(=O)O)C(=O)N[C@@H](C(C)C)C(=O)N(C)[C@@H](Cc2ccccc2)C(=O)N[C@@H](CCC(=O)O)C(=O)N2C[C@H](O)C[C@@H]2C(=O)N[C@@H](Cc2c[nH]c3ccccc23)C(=O)N[C@@H](Cc2ccc(O)cc2)C(=O)N[C@@H](CC(=O)O)C(=O)N[C@H](C(=O)NCC(N)=O)CSCC(=O)N[C@@H](Cc2cc(F)c(F)c(F)c2)C(=O)N(C)[C@@H](Cc2ccccc2)C(=O)N1C [Example 9336] ({CH2CO}-[Phe(3,4,5-F3)][NMeF][NMeNle][d(cisHyp)]DV[NMeF]E[d(cisHyp)]WYDCG-NH2; thioether N-13) | 10 to 99.9 nM
CCCC[C@H]1C(=O)N(C)[C@@H](CCCC)C(=O)N[C@@H](CC(C)C)C(=O)N[C@H](C(=O)NCC(N)=O)CSCC(=O)N[C@@H](Cc2ccc(OC)cc2)C(=O)N(C)[C@@H](C)C(=O)N[C@@H](CC(=O)O)C(=O)N2CCC[C@H]2C(=O)N[C@@H](Cc2cnc[nH]2)C(=O)N[C@@H](CCCCN)C(=O)N2C[C@H](O)C[C@@H]2C(=O)N[C@@H](Cc2c[nH]c3ccccc23)C(=O)N[C@@H](CCCCN)C(=O)N[C@@H](Cc2cn(CC(=O)O)c3ccccc23)C(=O)N1C [Example 7153] ({CH2CO}-Y(Me)[NMeA]DPHK[d(cisHyp)]WK[Trp(1-CH2COOH)][NMeNle][NMeNle]LCG-NH2; thioether N-14) | 1 to 9.9 nM
CCCC[C@H]1C(=O)N(C)[C@@H](CCCC)C(=O)N[C@@H](CC(C)C)C(=O)N[C@H](C(=O)NCC(N)=O)CSCC(=O)N[C@@H](Cc2ccc(O)cc2)C(=O)N(C)[C@@H](C)C(=O)N[C@@H](CC(N)=O)C(=O)N2CCC[C@H]2C(=O)N[C@@H](Cc2c[nH]cn2)C(=O)N[C@@H](CCC(N)=O)C(=O)N2C[C@H](O)C[C@H]2C(=O)N[C@@H]([C@@H](C)c2c[nH]c3ccccc23)C(=O)N[C@@H](CO)C(=O)N[C@@H](Cc2c[nH]c3ccccc23)C(=O)N1C [Example 10554] ({CH2CO}-Y[NMeA]NPHQ[Hyp][Trp(βS-Me)]SW[NMeNle][NMeNle]LCG-NH2; thioether N-14) | 1 to 9.9 nM
CCCC[C@H]1C(=O)N2CCC[C@@H]2C(=O)N[C@@H](CC(=O)O)C(=O)N[C@@H](C(C)C)C(=O)N(C)[C@@H](Cc2ccccc2)C(=O)N[C@@H](CCC(=O)O)C(=O)N2CCOC[C@@H]2C(=O)N[C@@H](Cc2c[nH]c3ccccc23)C(=O)N[C@@H](Cc2ccc(O)cc2)C(=O)N[C@@H](CCCN)C(=O)N[C@H](C(=O)NCC(N)=O)CSCC(=O)N[C@@H](Cc2cc(F)c(F)c(F)c2)C(=O)N(C)[C@@H](Cc2ccccc2)C(=O)N1C [Example 3645] ({CH2CO}-[Phe(3,4,5-F3)][NMeF][NMeNle][dP]DV[NMeF]E[X1]WY[Orn]CG-NH2; thioether N-13) | 10 to 99.9 nM
CCCC[C@H]1C(=O)N2C[C@@H](O)C[C@@H]2C(=O)N[C@@H](CC(=O)O)C(=O)N[C@@H](C(C)C)C(=O)N(C)[C@H](Cc2ccccc2)C(=O)N[C@@H](Cc2ccc(O)cc2)C(=O)N2C[C@@H](O)C[C@@H]2C(=O)N[C@@H](Cc2c[nH]c3ccccc23)C(=O)N[C@@H](Cc2ccc(O)cc2)C(=O)N[C@@H](CCCN)C(=O)N[C@H](C(=O)NCC(N)=O)CSCC(=O)N[C@@H](Cc2ccc(F)c(F)c2)C(=O)N(C)[C@@H](Cc2ccccc2)C(=O)N1C [Example 9232] ({CH2CO}-[Phe(3,4-F2)][NMeF][NMeNle][dHyp]DV[dNMeF]Y[dHyp]WY[Orn]CG-NH2; thioether N-13) | 1 to 9.9 nM
CCCC[C@H]1C(=O)N(C)[C@@H](CCCC)C(=O)N[C@@H](CCC(=O)O)C(=O)N[C@H](C(=O)NCC(N)=O)CSCC(=O)N[C@@H](Cc2ccc(O)cc2)C(=O)N(C)[C@@H](C)C(=O)N[C@@H](CC(=O)O)C(=O)N2CCC[C@H]2C(=O)N[C@@H](CO)C(=O)N[C@@H](CCC(=O)O)C(=O)N2C[C@H](O)C[C@H]2C(=O)N[C@@H](Cc2c[nH]c3ccccc23)C(=O)N[C@@H](CCC(=O)O)C(=O)N[C@@H](Cc2c[nH]c3ccccc23)C(=O)N1C [Example 5260] ({CH2CO}-Y[NMeA]DPSE[Hyp]WEW[NMeNle][NMeNle]ECG-NH2; thioether N-14) | 1 to 9.9 nM
CCCC[C@H]1C(=O)N(C)[C@@H](CCCC)C(=O)N[C@@H](CC(C)C)C(=O)N[C@H](C(=O)NCC(N)=O)CSCC(=O)N[C@@H](Cc2ccc(O)cc2)C(=O)N2CCCC[C@H]2C(=O)N[C@@H](CC(N)=O)C(=O)N2CCC[C@H]2C(=O)N[C@@H](Cc2cnc[nH]2)C(=O)N[C@@H](CCC(N)=O)C(=O)N2C[C@H](O)C[C@H]2C(=O)N[C@@H](Cc2c[nH]c3ccccc23)C(=O)N[C@@H](CO)C(=O)N[C@@H](Cc2c[nH]c3ccccc23)C(=O)N1C [Example 1273] ({CH2CO}-Y[Pip]NPHQ[Hyp]WSW[NMeNle][NMeNle]LCG-NH2; thioether N-14) | 1 to 9.9 nM
CCCC[C@H]1C(=O)N(C)[C@@H](CCCC)C(=O)N[C@@H](CCC(=O)O)C(=O)NC(C(=O)NCC(N)=O)CSCC(=O)N[C@@H](Cc2ccc(O)cc2)C(=O)N(C)[C@@H](C)C(=O)N[C@@H](CC(N)=O)C(=O)N2CCC[C@H]2C(=O)N[C@@H](CC(N)=O)C(=O)N[C@@H](CC(C)C)C(=O)N2C[C@H](O)C[C@H]2C(=O)N[C@@H](Cc2c[nH]c3ccccc23)C(=O)N[C@@H](CCN)C(=O)N[C@@H](Cc2c[nH]c3ccccc23)C(=O)N1C (stereo partly drawn) [Example 9181] ({CH2CO}-Y[NMeA]NPNL[Hyp]W[Dab]W[NMeNle][NMeNle]E[ξC]G-NH2; thioether N-14) | 1 to 9.9 nM
CCCC[C@H]1C(=O)N(C)CC(=O)N[C@@H](CC(=O)O)C(=O)N[C@@H](C(C)C)C(=O)N(C)[C@@H](Cc2ccccc2)C(=O)N[C@@H](Cc2ccc(O)cc2)C(=O)N(C)CC(=O)NC(Cc2c[nH]c3ncccc23)C(=O)N[C@@H](Cc2ccc(O)cc2)C(=O)N[C@@H](CC(C)C)C(=O)N[C@H](C(=O)NCC(N)=O)CSCC(=O)N[C@@H](Cc2ccccc2)C(=O)N(C)[C@@H](Cc2ccccc2)C(=O)N1C (stereo partly drawn) [Example 3239] ({CH2CO}-F[NMeF][NMeNle][Sar]DV[NMeF]Y[Sar][ξTrp(7-aza)]YLCG-NH2; thioether N-13) | 10 to 99.9 nM
CCCC[C@H]1C(=O)N2CCC[C@@H]2C(=O)N[C@@H](CO)C(=O)N[C@@H](C(C)C)C(=O)N(C)[C@@H](Cc2ccccc2)C(=O)N[C@@H](CC(=O)O)C(=O)N2CCCC[C@@H]2C(=O)N[C@@H](Cc2c[nH]c3ccccc23)C(=O)N[C@@H](Cc2ccc(O)cc2)C(=O)N[C@@H](CC(C)C)C(=O)N[C@H](C(=O)NCC(N)=O)CSCC(=O)N[C@@H](Cc2cc(F)c(F)c(F)c2)C(=O)N(C)[C@@H](Cc2ccc(F)cc2)C(=O)N1C [Example 10583] ({CH2CO}-[Phe(3,4,5-F3)][NMePhe(4-F)][NMeNle][dP]SV[NMeF]D[dPip]WYLCG-NH2; thioether N-13) | 1 to 9.9 nM
CCCC[C@H]1C(=O)N2C[C@H](O)C[C@@H]2C(=O)N[C@@H](CC(=O)O)C(=O)N[C@@H](C(C)C)C(=O)N(C)[C@@H](Cc2ccccc2)C(=O)N[C@@H](CCC(=O)O)C(=O)N2CCC[C@@H]2C(=O)N[C@@H](Cc2c[nH]c3ccccc23)C(=O)N[C@@H](Cc2ccc(O)cc2)C(=O)N[C@@H](CCO)C(=O)N[C@H](C(=O)NCC(N)=O)CSCC(=O)N[C@@H](Cc2cc(F)c(F)c(F)c2)C(=O)N(C)[C@@H](Cc2ccccc2)C(=O)N1C [Example 10154] ({CH2CO}-[Phe(3,4,5-F3)][NMeF][NMeNle][d(cisHyp)]DV[NMeF]E[dP]WY[hSer]CG-NH2; thioether N-13) | 1 to 9.9 nM
CCCC[C@H]1C(=O)N2C[C@H](O)C[C@@H]2C(=O)N[C@@H](CC(=O)O)C(=O)N[C@@H](C(C)C)C(=O)N(C)[C@@H](Cc2ccccc2)C(=O)N[C@@H](CC(N)=O)C(=O)N2C[C@H](O)C[C@@H]2C(=O)N[C@@H](Cc2c[nH]c3ccccc23)C(=O)N[C@@H](Cc2ccc(O)cc2)C(=O)N[C@@H](CCN)C(=O)N[C@H](C(=O)NCC(N)=O)CSCC(=O)N[C@@H](Cc2cc(F)c(F)c(F)c2)C(=O)N(C)[C@@H](Cc2ccccc2)C(=O)N1C [Example 9364] ({CH2CO}-[Phe(3,4,5-F3)][NMeF][NMeNle][d(cisHyp)]DV[NMeF]N[d(cisHyp)]WY[Dab]CG-NH2; thioether N-13) | 10 to 99.9 nM
CCCC[C@H]1C(=O)N2C[C@H](O)C[C@@H]2C(=O)N[C@@H](CC(=O)O)C(=O)N[C@@H](C(C)C)C(=O)N(C)[C@@H](Cc2ccccc2)C(=O)N[C@@H](CCC(N)=O)C(=O)N2C[C@H](O)C[C@@H]2C(=O)N[C@@H](Cc2c[nH]c3ccccc23)C(=O)N[C@@H](Cc2ccc(O)cc2)C(=O)N[C@@H](CCC(=O)O)C(=O)N[C@H](C(=O)NCC(N)=O)CSCC(=O)N[C@@H](Cc2cc(F)c(F)c(F)c2)C(=O)N(C)[C@@H](Cc2ccccc2)C(=O)N1C [Example 9357] ({CH2CO}-[Phe(3,4,5-F3)][NMeF][NMeNle][d(cisHyp)]DV[NMeF]Q[d(cisHyp)]WYECG-NH2; thioether N-13) | 10 to 99.9 nM
CCCC[C@H]1C(=O)N2C[C@@H](C)C[C@@H]2C(=O)N[C@@H](CC(=O)O)C(=O)N[C@@H](C(C)C)C(=O)N(C)[C@@H](Cc2ccccc2)C(=O)N[C@@H](Cc2ccc(OC)cc2)C(=O)N2C[C@@H](O)C[C@@H]2C(=O)N[C@@H](Cc2c[nH]c3ccccc23)C(=O)N[C@@H](Cc2ccc(O)cc2)C(=O)N[C@@H](CCCN)C(=O)N[C@H](C(=O)NCC(N)=O)CSCC(=O)N[C@@H](Cc2ccc(F)c(F)c2)C(=O)N(C)[C@@H](Cc2ccccc2)C(=O)N1C [Example 9229] ({CH2CO}-[Phe(3,4-F2)][NMeF][NMeNle][dPro(4S-Me)]DV[NMeF]Y(Me)[dHyp]WY[Orn]CG-NH2; thioether N-13) | 1 to 9.9 nM
CCCC[C@H]1C(=O)N(C)CC(=O)N[C@@H](CC(=O)O)C(=O)N[C@@H](C(C)C)C(=O)N(C)[C@@H](Cc2ccccc2)C(=O)N[C@@H](Cc2ccc(O)cc2)C(=O)N(C)CC(=O)N[C@@H](Cc2c[nH]c3ccccc23)C(=O)N[C@@H](Cc2ccc(O)cc2)C(=O)N[C@@H](CC(C)C)C(=O)N[C@H](C(=O)NCC(N)=O)CSCC(=O)N[C@@H](Cc2ccc(Cl)c(Cl)c2)C(=O)N(C)[C@@H](Cc2ccccc2)C(=O)N1C [Example 3246] ({CH2CO}-[Phe(3,4-Cl2)][NMeF][NMeNle][Sar]DV[NMeF]Y[Sar]WYLCG-NH2; thioether N-13) | 10 to 99.9 nM
